The subject of one assay is FaDu cells. Briefly: comet assay for DNA damage in FaDu cells. The format is cell-based, human. As to conditions: 1 μM BrdU with 1 Gy of 14 keV NR, versus BrdU-RS2000 or RS2000. The method, then: Referring to FIGS. 22A and 22B, comet assays for evaluating DNA damages induced by BrdU, RS2000, BrdU with RS2000, NR, and NR with BrdU are provided in accordance with an exemplary embodiment of the present disclosure. Comet assays are commonly used to measure DNA single-strand breaks […] and double-strand breaks (DSBs). FaDu cells (10^4 cells/10 μl of PBS) are mixed with 75 μl of 0.75% low-melting agarose. The mixture is then immediately embedded onto a glass slide pre-coated with 2 layers of 1% agarose, and spread evenly with a coverslip. The mixture on the glass slide is solidified on ice for 5 minutes. 2 additional layers of 1% agarose are then coated on the cell layer. The cell is then soaked with cell lysis buffer (10 mM Tris, 2.5 M NaCl, 100 mM Na2-EDTA, and 1% Triton X-100, pH 10.0) at 4° C. for 1 hour. The slide is then placed horizontally in an electrophoretic apparatus with alkaline electrophoretic buffer ([…] and 1 mM Na2-EDTA, pH >12.0) for 60 minutes, and then electrophoresis is conducted in the apparatus for 30 minutes at 25 V and 300 mA. After the electrophoresis has ended, the slide is soaked with neutralization buffer (0.4 M Tris, pH 7.4) for 10 minutes. The cells on the slide are stained with propidium iodide (PI) of 20 μg/ml and subjected to microscopic examination. […] FIG. 22B is a quantified result of FIG. 22A. […]

The subject of the next assay is γH2AX. Briefly: p-γH2AX immunofluorescent staining of FaDu cells. The format is cell-based, human. The settings on record: 1 μM BrdU with 1 Gy of 14 keV NR. The method, then: Referring to FIGS. 23A and 23B, p-γH2AX immunofluorescent staining for evaluating DNA damages induced by BrdU, RS2000, BrdU with RS2000, NR, and NR with BrdU, are provided in accordance with exemplary embodiments of the present disclosure. γH2AX is the histone H2AX protein with phosphorylated amino acid on serine 139. γH2AX is a specific marker for DNA DSBs. FaDu cells are seeded on a chamber slides, and are fixed with −20° C., 100% ethanol under room temperature for 15 minutes. The fixed chamber slides are washed with PBS, and permeablized with 0.1% Triton X-100 for 10 minutes. Then, the chamber slides are blocked with 5% milk in PBS for 30 minutes at room temperature, and incubated with primary antibody (anti-γH2AX) overnight at 4° C. FaDu cells in the chamber slides are then washed with PBS, and incubated with secondary antibody which is conjugated by a fluorescent dye for 1 hour at room temperature. The nuclei were countestained with 5 μg/ml of DAPI (4′,6-diamidino-2-phenylindole). The stained FaDu cells are then being mounted and subjected to microscopic examination with a confocal laser scanning microscope (ZEISS LSM780). The number of p-γH2AX are quantified using Metamorph software. […] FIG. 23B is a quantitative result of FIG. 23A. […]

SMILES strings stand for the structures.

`O=c1[nH]c(=O)n([C@H]2C[C@H](O)[C@@H](CO)O2)cc1Br` [BrdU, bromodeoxyuridine]: in the assay with FaDu cells, the “relative DNA tail movement (comet assay)” value is “largest relative DNA tail movements”. Besides, in the assay with γH2AX, the “γH2AX expression (immunofluorescent staining)” value is reported as “significant amount of γH2AX expression”.
